Marks after values point to notes of the source that are not given here.
What was measured:
mice = assay: Maximal Electroshock Test (MES); type: in vivo; conditions: for MES % Protection from Tonic Extension: 20 mice; for Time of Straightening Reflex Loss: mean of 20 mice
Protocol: MES seizures were induced by electroconvulsometer (ECT Unit Ugo Basile, Italy). Mice received an electroshock (50 mA at 60 Hz for 0.2 s duration) through intra-corneal electrodes. This current intensity elicited complete tonic extension of the hindlimbs in control mice. The stimulus was applied 30 min or 60 min after intraperitoneal (i.p.) or oral (p.o.) administration of the test compound, respectively. To evaluate the drug effect on the seizure severity, time of Straightening Reflex Loss and the presence of tonic hindlimb extension were selected as the parameters.

PTZ-treated mice = assay: Chemically induced seizures (pentylenetetrazole, PTZ); type: in vivo; conditions: for % Protection on PTZ induced convulsions: PTZ 90 mg/kg i.p. 30 min after compound, 20 mice
Protocol: Seizure-inducer pentylenetetrazole (PTZ) (90 mg/kg i.p.) was administered to mice 30 min after i.p. administration of the test compound.
Compound of Example 1 at the doses of 10 and 30 mg/kg i.p. was able to protect the animals from PTZ-induced convulsions. […]

[1] = 10 mg/kg i.p., stimulus 30 min after administration
[2] = 30 mg kg^-1 p.o., stimulus 60 min after administration

C[C@H]1C(=O)NC(C)(C)N1Cc1ccc(OCc2cccc(F)c2)cc1 [Example 1, (S)-(-)-1-[4-(3-Fluoro-benzyloxy)-benzyl]-2,2,5-trimethyl-imidazolidin-4-one]
MES % Protection from Tonic Extension (mice; [1]): 50* %
Time of Straightening Reflex Loss (mice; [1]): 66.8 ± 9.3 s
MES % Protection from Tonic Extension (mice; [2]): 30%
Time of Straightening Reflex Loss (mice; [2]): 56.8 ± 6.3 s
anticonvulsant activity in MES test (in words) (mice; either after i.p. (10 mg/kg) or oral (30 mg/kg) administration): significant anticonvulsant activity
% Protection on PTZ induced convulsions (PTZ-treated mice; 3 mg/kg i.p.): 0%
% Protection on PTZ induced convulsions (PTZ-treated mice; 10 mg/kg i.p.): 40%
% Protection on PTZ induced convulsions (PTZ-treated mice; 30 mg/kg i.p.): 90%
protection from PTZ-induced convulsions (in words) (PTZ-treated mice; highest dose (30 mg/kg i.p.)): almost complete
